Measured values taken from patent publication US4548938A, “5-H-1,3,4-thiadiazolo[3,2-a]pyrimidin-5-one compounds” (Janssen Pharmaceutica N.V., priority 1985, dated 1985).
Where two headings read alike, the source gives them in different places.

Tests used:
[1] = test system: compound 48/80-induced lethality; assay: protection of rats from compound 48/80-induced lethality; assay type: in vivo, male Wistar rats; details: Rattus norvegicus, sc, 4 h, s.c., compound 48/80 0.5 mg/kg i.v. 1 hour after treatment, 50% protected against lethality, read-out: 48/80-test ED50
Excerpt: PROTECTION OF RATS FROM COMPOUND 48/80-INDUCED LETHALITY
Compound 48/80, a mixture of oligomers obtained by condensation of 4-methoxy-N-methyl-phenethylamine and formaldehyde has been described as a potent histamine releasing agent (Int. Arch. Allergy, 13, 336 (1958)). The protection from compound 48/80-induced lethal circulatory collapse appears to be a simple way of evaluating quantitatively the antihistaminic activity of test-compounds. Male rats of an inbred Wistar strain, weighing 240-260 g were used in the experiment. After overnight starvation the rats were transferred to conditioned laboratories (temp.=21±1° C., relative humidity=65±5%). The rats were treated subcutaneously or orally with a test compound or with the solvent (NaCl solution, 0.9%). One hour after treatment there was injected intravenously compound 48/80, freshly dissolved in water, at a dose of 0.5 mg/kg (0.2 ml/100 g of body weight). In control experiments, wherein 250 solvent-treated animals were injected with the standard dose of compound 48/80 not more than 2.8% of the animals survived after 4 hours, is therefore considered to be a safe criterion of a protective effect of drug administration.
In this connection the ED50 -values are the minimal doses of the concerned compounds, administered in the subcutaneous way, whereby 50% of the rats are protected against compound 48/80-induced lethality.

[2] = test system: compound 48/80-induced gastric lesions; assay: gastric lesion test: lesions induced by compound 48/80; assay type: in vivo; details: Rattus norvegicus, read-out: gastric lesion test ED50
[3] = test system: tryptamine-induced bilateral tonic seizures; assay: tryptamine (TRY) test in rats, part of the combined APO-TRY-NOR test; assay type: in vivo, male Wistar rats; details: Rattus norvegicus, sc, 1.5 h, tryptamine 40 mg/kg i.v. at 90 min
[4] = test system: norepinephrine-induced mortality; assay: norepinephrine (NOR) test in rats, part of the combined APO-TRY-NOR test; assay type: in vivo, male Wistar rats; details: Rattus norvegicus, sc, 2 h, norepinephrine 1.25 mg/kg i.v. at 120 min
Method: THE COMBINED APOMORPHINE (APO)-, TRYPTAMINE (TRY)- AND NOREPINEPHRINE (NOR) TEST IN RATS
The experimental animals used in this test were adult male Wistar rats (weight 240±10 g). After an overnight fast, the animals were treated subcutaneously (1 ml/100 g) with an aqueous solution of the compound under investigation (time=zero) and put in isolated observation cages. […] At the end of this 1 hour period (time=90 minutes) the same animals were injected intravenously with 40 mg/kg of tryptamine (TRY) and the presence of the typical tryptamine-induced bilateral tonic seizures was noted. Two hours after pretreatment (time=120 minutes) finally, the same animals were challenged with 1.25 mg/kg intravenously of norepinephrine (NOR) and possible mortality was looked for up to 60 minutes later.
The table 1 gives the ED50 -values of a number of the compounds under consideration. As used herein, the ED50 -value represents the dose which protects 50% of the animals from apomorphine-, tryptamine- or norepinephrine-induced phenomena.

[5] = test system: apomorphine-induced phenomena: agitation and stereotypic chewing; assay: apomorphine (APO) test in rats, part of the combined APO-TRY-NOR test; assay type: in vivo, male Wistar rats; details: Rattus norvegicus, sc, 0.5 h, read-out: ED50 (APO)-rat
[6] = test system: apomorphine-induced emesis; assay: apomorphine test in dogs (APO-dog); assay type: in vivo; details: Canis lupus familiaris, sc; beagle dogs; apomorphine 0.31 mg/kg s.c. 1 hour after compound; protection from emesis
[7] = test system: serotonin-induced contraction of rat caudal artery; assay: antagonistic activity on the effect of serotonin on the caudal artery of the rat; details: serotonin 40 ng/ml; minimal concentration reducing contraction amplitude to at least 50% of normal; 5 min
Method: ANTAGONISTIC ACTIVITY ON THE EFFECT OF SEROTONIN ON THE CAUDAL ARTERY OF THE RAT
Caudal arteries from fasted male rats (210-235 g) were used in the test. Two helical strips having a length of 5-6 cm and a width of 2 mm. were obtained from each artery and mounted vertically in a 100 ml organ bath containing an oxygenated Krebs-Henseleit solution. Submaximal contractions of the arterial strips were produced by adding single doses of serotonin (40 ng/ml) to the organ bath for 2 minutes with each time an interval of 10 minutes. The amplitude of the contraction was measured before and 5 minutes after adding the drug. After washing out, the agonist was added again three times in order to see whether the contraction was restored and normalized.

[8] = rats, compound 48/80, distension of the stomach completely absent in 50% of rats
[9] = s.c., rats, apomorphine 1.25 mg/kg i.v. 30 min after compound

SMILES | ED50 [1] [mg/kg] | ED50 [2, 8] [mg/kg] | ED50 [3] [mg/kg] | ED50 [4] [mg/kg] | ED50 [5, 9] [mg/kg] | ED50 [6] [mg/kg] | caudal artery rat ED50 [7] [ng/mL] | ED50 [5] [mg/kg] | ED50 [2] [mg/kg]
Cc1nc2n(c(=O)c1CCN1CC[C@H](c3c[nH]c4ccccc34)[C@H](C)C1)CCS2 (relative stereo) [compound 23, cis-2,3-dihydro-6-[2-[4-(1H-indol-3-yl)-3-methyl-1-piperidinyl]ethyl]-7-methyl-5H-thiazolo[3,2-a]pyrimidin-5-one] | 2.5 | 2.5 | – | – | – | – | – | – | –
Cc1nc2n(c(=O)c1CCN1CCC(C(=O)c3ccc(F)cc3)CC1)CCS2 [compound 1, 6-[2-[4-(4-fluorobenzoyl)-1-piperidinyl]ethyl]-2,3-dihydro-7-methyl-5H-thiazolo[3,2-a]pyrimidin-5-one] | 0.63 | 0.0005 | 0.16 | 0.63 | 0.31 | 0.03 | 0.32 | – | –
Cc1nc2scc(C)n2c(=O)c1CCN1CCC(C(=O)c2ccc(F)cc2)CC1 [compound 4, 6-[2-[4-(4-fluorobenzoyl)-1-piperidinyl]ethyl]-3,7-dimethyl-5H-thiazolo[3,2-a]pyrimidin-5-one] | 0.31 | 0.01 | 0.005 | 1.25 | – | – | 0.32 | 0.16 | –
Cc1nc2sccn2c(=O)c1CCN1CCC(C(=O)c2ccc(F)cc2)(c2ccccc2)CC1 [compound 10, 6-[2-[4-(4-fuorobenzoyl)-4-phenyl-1-piperidinyl]ethyl]-7-methyl-5H-thiazolo-[3,2-a]pyrimidin-5-one] | – | 2.5 | – | – | – | – | – | – | –
Cc1nc2sc3ccccc3n2c(=O)c1CCN1CCC(c2c[nH]c3ccccc23)CC1 [compound 13, 3-[2-[4-(1H-indol-3-yl)-1-piperidinyl]ethyl]-2-methyl-4H-pyrimido[2,1-b]benzothiazol-4-one] | 0.63 | 0.04 | 0.31 | 0.16 | – | – | 0.32 | 1.25 | –
Cc1nn2c(=O)c(CCN3CCC(c4c[nH]c5ccccc45)CC3)c(C)nc2s1 [compound 14, 6-[2-[4-(1H-indol-3-yl)-1-piperidinyl]ethyl]-2,7-dimethyl-5H-1,3,4-thiadiazolo[3,2-a]pyrimidin-5-one] | 0.04 | 0.04 | 1.25 | 0.63 | 5 | – | 0.56 | – | –
Cc1nc2n(c(=O)c1CCN1CCC(c3c[nH]c4ccccc34)CC1)CCS2 [compound 15, 2,3-dihydro-6-[2-[4-(1H-indol-3-yl)-1-piperidinyl]-ethyl]-7-methyl-5H-thiazolo[3,2-a]pyrimidin-5-one] | 0.02 | 0.04 | – | 1.25 | – | 0.008 | 0.31 | 1.25 | –
Cc1nc2scc(C)n2c(=O)c1CCN1CCC(c2c[nH]c3ccc(F)cc23)CC1 [compound 20, 6-[2-[4-(5-fluoro-1H-indol-3-yl)-1-piperidinyl]ethyl]-3,7-dimethyl-5H-thiazolo[3,2-a]pyrimidin-5-one] | 0.63 | 0.31 | 0.63 | – | – | 0.12 | 0.31 | 1.25 | –
Cc1nc2sccn2c(=O)c1CCN1CCC(c2c[nH]c3ccc(Cl)cc23)CC1 [compound 21, 6-[2-[4-(5-chloro-1H-indol-3-yl)-1-piperidinyl]ethyl]-7-methyl-5H-thiazolo[3,2-a]pyrimidin-5-one] | 2.5 | – | – | 1.25 | – | – | – | 0.63 | 1.25
Cc1nc2sc(C)c(C)n2c(=O)c1CCN1CCC(C(=O)c2ccc(F)cc2)CC1 [compound 24, 6-[2-[4-(4-fluorobenzoyl)-1-piperidinyl]ethyl]-2,3,7-trimethyl-5H-thiazolo[3,2-a]pyrimidin-5-one] | 0.08 | 0.01 | 0.04 | 0.63 | 0.63 | 0.12 | – | – | –
